“Also recorded” adds a separate entry of the source.
Columns and labels:
[1] = pH assessment and visual compatibility of first biocide with AMA-324 in polymer solution; format: physicochemical; conditions: for pH end: AMA-324 plus first biocide mixed 30 minutes, AMA-324 alone stirred 40 minutes; for pH after addition of first biocide: polymer solution with AMA-324 100 ppm plus first biocide 100 ppm (active), DBNPA 50 ppm; for Observations on adjusted pH solution: polymer solution with AMA-324 plus first biocide, after pH adjustment, visual appearance
Description: Seven standard polymer solutions were prepared by preparing a commercially-available polyacrylamide polymer using standard methods. The polymer was added to artificial seawater formulation (approximately 27° C., with the pH adjusted to 6.5 and buffered accordingly) and the solution was mixed utilizing a magnetic stirrer to obtain 200 mL of a 300 ppm (active) polymer solution. After mixing, the initial pH of each polymer solution was measured and recorded. The pH was measured using a calibrated bench top pH meter.
After the initial pH reading, 1 mL of the AMA-324 stock solution was added to 200 mL of the polymer solution to provide 100 ppm (active) of the biocide, and mixed for 10 minutes. The pH of the solution with the AMA-324 was then measured and recorded.
Following pH measurement of the polymer solutions containing AMA-324, 1 mL of a first biocide component stock solution (as described in Table 1) was added to each polymer mixture. The concentration of the biocide stock solutions were prepared to provide 100 ppm (active) in the polymer solution, except for DBNPA which was evaluated at 50 ppm (active). The polymer solutions with the AMA-324 and the first biocide components were mixed for 30 minutes, after which the pH was again measured.
Finally, one control experiment was performed with only the addition of AMA-324 to the polymer solution, stirred for 40 minutes with no other biocide addition.

SRB = experiment: Planktonic biocide efficacy, MPN enumeration, SRB; format: cell-based; conditions: FIG. 8 versus FIG. 14

Row | Molecule | pH end [1] | pH after addition of first biocide [1] | Observations on adjusted pH solution [1] | Synergistic effect of dual biocide system with AMA-324 (SRB) | Observations on adjusted pH solution ([1]; listed as ADBAC Quat)
1 | N#CC(Br)(Br)C(N)=O [DBNPA, 2,2-dibromo-3-nitrilopropionamide] | 8.44 | 8.04 | some turbidity; also recorded: cloudy |  | 
2 | O=CCCCC=O [GLUT, Glutaraldehyde] | 9.12 | 9.29 | clear | synergistic effect | 
3 | C12-16-alkyl dimethyl benzyl ammonium chloride [ADBAC quat] | 9.18 | 9.57 | cloudy |  | some turbidity
4 | tetrakis(hydroxymethyl) phosphonium sulfate [THPS] | 7.13 | 6.8 | clear | synergistic effect | 

Source: US20140303045A1, “Biocidal Systems and Methods of Use” (Kemira Oyj, priority 2013, published 2014)
